Test results taken from ChEMBL document CHEMBL1201862, “PubChem BioAssay data set” (2004).
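Results reflect a 48-hour exposure of cells in 96-well plates to compound at five concentrations. Here, GI50 denotes the concentration required for 50% inhibition of growth.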 Activity calls are given as the source filed them. Cut-off read from the data, not from the text of the source: active = GI50 up to about 1.1 µM and inactive = higher.

How the values were obtained:
Test in all cases: inhibition of tumour cell growth, NCI panel, 48 h
BT-549 = system: BT-549
CCRF-CEM = system: CCRF-CEM
DU-145 = system: DU-145
EKVX = system: EKVX
HCT-116 = system: HCT-116
HL-60 = system: HL-60
HOP-92 = system: HOP-92
Hs-578T = system: Hs-578T
K562 = system: K562
KM12 = system: KM12
LOX IMVI = system: LOX IMVI
NCI-H522 = system: NCI-H522
OVCAR-3 = system: OVCAR-3
OVCAR-5 = system: OVCAR-5
RPMI-8226 = system: RPMI-8226
RXF 393 = system: RXF 393
SK-OV-3 = system: SK-OV-3
SN12C = system: SN12C
SR = system: SR
MDA-MB-435 = system: MDA-MB-435

Measured: GI50

CNC(=O)N(C)C(=O)c1ccccc1C(=O)N(C)C(=O)NC
inactive: BT-549 > 10 µM | CCRF-CEM > 10 µM | DU-145 > 10 µM | EKVX > 10 µM | HCT-116 > 10 µM | HL-60 > 10 µM | HOP-92 > 10 µM | Hs-578T > 10 µM | K562 > 10 µM | KM12 > 10 µM | LOX IMVI > 10 µM | NCI-H522 > 10 µM | OVCAR-3 > 10 µM | OVCAR-5 > 10 µM | RPMI-8226 > 10 µM | RXF 393 > 10 µM | SK-OV-3 > 10 µM | SN12C > 10 µM | SR > 10 µM

O=C(O)c1ccc(NNc2cc(=O)[nH]c(=O)[nH]2)cc1
inactive: BT-549 > 100 µM | CCRF-CEM > 100 µM | DU-145 > 100 µM | EKVX > 100 µM | HCT-116 > 100 µM | HL-60 > 100 µM | Hs-578T > 100 µM | K562 > 100 µM | KM12 > 100 µM | LOX IMVI > 100 µM | OVCAR-3 > 100 µM | OVCAR-5 > 100 µM | RPMI-8226 > 100 µM | RXF 393 > 100 µM | SK-OV-3 > 100 µM | SN12C > 100 µM | SR > 100 µM

NNC(=O)c1nn[nH]c1SSc1[nH]nnc1C(=O)NN
inactive: BT-549 > 100 µM | CCRF-CEM > 100 µM | DU-145 > 100 µM | EKVX > 100 µM | HCT-116 > 100 µM | HL-60 > 100 µM | HOP-92 > 100 µM | Hs-578T > 100 µM | KM12 > 100 µM | LOX IMVI > 100 µM | MDA-MB-435 > 100 µM | NCI-H522 > 100 µM | OVCAR-3 > 100 µM | OVCAR-5 > 100 µM | RXF 393 > 100 µM | SK-OV-3 > 100 µM | SN12C > 100 µM

NC1CCN(c2nc3ccccc3c3c2CCCC3)CC1
inactive: BT-549 12.7 µM | CCRF-CEM 4.28 µM | DU-145 11.9 µM | EKVX 5.9 µM | HCT-116 4.01 µM | HL-60 1.77 µM | HOP-92 4.99 µM | Hs-578T 20.5 µM | K562 1.62 µM | KM12 4.07 µM | LOX IMVI 3.69 µM | MDA-MB-435 2.2 µM | NCI-H522 5.73 µM | OVCAR-3 11.9 µM | OVCAR-5 6.32 µM | RPMI-8226 1.8 µM | RXF 393 2.33 µM | SK-OV-3 12.6 µM | SN12C 8.67 µM

c1ccc2c(c1)SC1=C(SC(=C3SC4=C(S3)Sc3ccccc3S4)S1)S2
inactive: BT-549 > 100 µM | CCRF-CEM > 100 µM | DU-145 > 100 µM | EKVX > 100 µM | HCT-116 > 100 µM | HL-60 > 100 µM | HOP-92 > 100 µM | Hs-578T 23.3 µM | KM12 > 100 µM | LOX IMVI > 100 µM | MDA-MB-435 > 100 µM | NCI-H522 > 100 µM | OVCAR-3 > 100 µM | OVCAR-5 > 100 µM | RPMI-8226 > 100 µM | SN12C > 100 µM

O=S(=O)(O)c1ccc(/N=N/c2ccc3c(S(=O)(=O)O)cccc3c2O)c2ccccc12
inactive: BT-549 > 100 µM | DU-145 > 100 µM | EKVX > 100 µM | HCT-116 > 100 µM | HOP-92 > 100 µM | Hs-578T > 100 µM | KM12 > 100 µM | LOX IMVI > 100 µM | MDA-MB-435 > 100 µM | NCI-H522 > 100 µM | OVCAR-3 > 100 µM | OVCAR-5 > 100 µM | RPMI-8226 > 100 µM | RXF 393 > 100 µM | SK-OV-3 > 100 µM | SN12C > 100 µM

Cc1cc2ncn(C3CCCCO3)c2cc1C (centres undefined)
inactive: BT-549 > 100 µM | CCRF-CEM > 100 µM | DU-145 > 100 µM | EKVX > 100 µM | HCT-116 > 100 µM | HL-60 > 100 µM | HOP-92 > 100 µM | Hs-578T > 100 µM | K562 > 100 µM | KM12 35.5 µM | LOX IMVI 62.5 µM | MDA-MB-435 > 100 µM | NCI-H522 > 100 µM | OVCAR-3 > 100 µM | OVCAR-5 > 100 µM | RPMI-8226 > 100 µM | RXF 393 > 100 µM | SK-OV-3 > 100 µM | SN12C > 100 µM

CCCOC(=O)c1cc(C(=CCC[C@H]2CC[C@@]3(C)[C@@H](CC[C@@H]4[C@@H]3CC[C@]3(C)[C@@H](C(C)CCCC(C)C)CC[C@@H]43)C2)c2cc(Cl)c(O)c(C(=O)OCCC)c2)cc(Cl)c1O (some centres undefined)
inactive: BT-549 > 50 µM | CCRF-CEM > 50 µM | DU-145 > 50 µM | EKVX > 50 µM | HCT-116 > 50 µM | HL-60 > 50 µM | Hs-578T > 50 µM | K562 > 5 µM | KM12 > 50 µM | LOX IMVI > 50 µM | MDA-MB-435 > 50 µM | OVCAR-3 > 50 µM | RPMI-8226 > 50 µM | SN12C > 50 µM

COc1ccc(-n2cnc3c2=NC(C)(C)NC=3C(N)=O)c(OC)c1
inactive: CCRF-CEM > 100 µM | DU-145 > 100 µM | EKVX > 100 µM | HCT-116 > 100 µM | HL-60 > 100 µM | HOP-92 42.1 µM | Hs-578T > 100 µM | K562 > 100 µM | KM12 > 100 µM | LOX IMVI > 100 µM | MDA-MB-435 > 100 µM | NCI-H522 > 100 µM | OVCAR-3 > 100 µM | OVCAR-5 > 100 µM | RPMI-8226 > 100 µM | RXF 393 > 100 µM | SK-OV-3 > 100 µM | SN12C > 100 µM | SR > 100 µM

CC1(C)N=c2[nH]cnc2=C(C(N)=O)N1
inactive: CCRF-CEM > 100 µM | DU-145 > 100 µM | EKVX > 100 µM | HCT-116 > 100 µM | HL-60 > 100 µM | HOP-92 > 100 µM | Hs-578T > 100 µM | K562 > 100 µM | KM12 > 100 µM | LOX IMVI > 100 µM | MDA-MB-435 > 100 µM | NCI-H522 > 100 µM | OVCAR-3 > 100 µM | OVCAR-5 > 100 µM | RPMI-8226 > 100 µM | RXF 393 > 100 µM | SK-OV-3 > 100 µM | SN12C > 100 µM | SR > 100 µM

CC(C)c1cc(=O)[nH]c2cc(N)ccc12
inactive: BT-549 > 100 µM | CCRF-CEM > 100 µM | DU-145 > 100 µM | EKVX > 100 µM | HCT-116 > 100 µM | HOP-92 > 100 µM | K562 > 100 µM | KM12 > 100 µM | LOX IMVI > 100 µM | MDA-MB-435 > 100 µM | OVCAR-3 > 100 µM | OVCAR-5 > 100 µM | RPMI-8226 > 100 µM | RXF 393 > 100 µM | SN12C > 100 µM | SR > 100 µM

C=CC1CCC[N+]1(CC(=O)OCC)Cc1ccccc1 (centres undefined)
inactive: BT-549 > 100 µM | CCRF-CEM > 100 µM | DU-145 > 100 µM | EKVX > 100 µM | HCT-116 > 100 µM | HL-60 > 100 µM | HOP-92 > 100 µM | K562 > 100 µM | MDA-MB-435 > 100 µM | OVCAR-3 > 100 µM | OVCAR-5 > 100 µM | RPMI-8226 > 100 µM | SK-OV-3 > 100 µM | SN12C > 100 µM | SR > 100 µM

COc1cc(Cc2nccc3cc(OC)c(OC)cc23)c(C(C)=O)cc1OC
inactive: BT-549 > 100 µM | DU-145 > 100 µM | EKVX 205 µM | HL-60 59.7 µM | HOP-92 150 µM | KM12 160 µM | LOX IMVI 23.6 µM | MDA-MB-435 61 µM | NCI-H522 10.2 µM | OVCAR-3 34.5 µM | OVCAR-5 > 300 µM | RXF 393 189 µM | SK-OV-3 128 µM | SN12C 1.76 µM | SR > 750 µM

CO/C(=N\N=C\c1ccc(OC)c(OC)c1)c1ccncc1
inactive: BT-549 > 10 µM | CCRF-CEM > 10 µM | DU-145 > 10 µM | EKVX > 10 µM | HL-60 > 10 µM | HOP-92 > 10 µM | Hs-578T > 10 µM | K562 > 10 µM | KM12 > 10 µM | LOX IMVI > 10 µM | RPMI-8226 > 10 µM | SK-OV-3 > 10 µM | SN12C > 10 µM | SR > 10 µM

COC(=O)NC1(NC(=O)OC)NC(=O)c2ccccc2N1
inactive: BT-549 > 100 µM | CCRF-CEM > 100 µM | DU-145 > 100 µM | EKVX > 100 µM | HCT-116 > 100 µM | HL-60 > 100 µM | Hs-578T > 100 µM | K562 > 100 µM | KM12 80.4 µM | NCI-H522 > 100 µM | OVCAR-3 > 100 µM | OVCAR-5 > 100 µM | SK-OV-3 > 100 µM | SN12C > 100 µM | SR > 100 µM

O=C1OC([C@H](O)c2cccnc2)c2ccccc21 (some centres undefined)
inactive: CCRF-CEM > 10 µM | DU-145 > 10 µM | EKVX > 10 µM | HCT-116 > 10 µM | HL-60 > 10 µM | HOP-92 > 10 µM | Hs-578T > 10 µM | K562 > 10 µM | KM12 > 10 µM | LOX IMVI > 10 µM | MDA-MB-435 > 10 µM | NCI-H522 > 10 µM | OVCAR-3 > 10 µM | OVCAR-5 > 10 µM | RPMI-8226 > 10 µM | RXF 393 > 10 µM | SK-OV-3 > 10 µM | SN12C > 10 µM | SR > 10 µM
